Each compound was assayed against T1, TRPM8 (Rattus norvegicus, UniProt Q8R455) (assay: Confirmation test of inhibitory effects on icilin-induced wet-dog shakes). Conditions: female SD rats, oral dose 0.3 mg/kg, icilin 1 mg/kg i.p. 1 hour after dosing, shakes counted for 5 minutes.
T1 construct: from tissue; host or cells: whole animal, female SD rats (in vivo)
Type: in vivo
Excerpt: Further, TRPM8 inhibitory activity can be evaluated by the efficacy inhibiting the wet-dog shake action which is induced by the administration of Icilin, TRPM8 agonist. Furthermore, an effect on overactive bladder (OAB) can be evaluated by an elongation of micturition interval against overactive bladder induced by acetic acid in accordance with a similar method described in J. Urol., 2001, 166, 1142.
Confirmation Test of Inhibitory Effects on Icilin-induced Wet-dog Shakes
Test compounds were dissolved in dimethylacetamide (wako), and 0.5% methylcellulose solution (wako) was added to make the solution or suspension containing 5% of dimethylacetatnide. At a dose of 0.3 to 10 mg/kg/5mL of test compounds were orally administered to female SD rats. After 1 hour, wet-dog shakes were induced by the intraperitoneal injection of icilin (1 mg/kg) which was dissolved in polyethylene glycol 400 (wako). From 5 minutes after the administration of icilin, wet-dog shakes were counted for 5 minutes. For control example, vehicle (a mixture of dimethylacetamide (wako): 0.5% methylcellulose (wako)=5:95) was administrated similarly, and the number of wet-dog shakes was counted in the same manner. A percent inhibition of wet-dog shakes by test compound was calculated from the following formula: [1-(test compound wet-dog shake count/vehicle wet-dog shake count)]×100.

T1 sequence (Q8R455 whole entry): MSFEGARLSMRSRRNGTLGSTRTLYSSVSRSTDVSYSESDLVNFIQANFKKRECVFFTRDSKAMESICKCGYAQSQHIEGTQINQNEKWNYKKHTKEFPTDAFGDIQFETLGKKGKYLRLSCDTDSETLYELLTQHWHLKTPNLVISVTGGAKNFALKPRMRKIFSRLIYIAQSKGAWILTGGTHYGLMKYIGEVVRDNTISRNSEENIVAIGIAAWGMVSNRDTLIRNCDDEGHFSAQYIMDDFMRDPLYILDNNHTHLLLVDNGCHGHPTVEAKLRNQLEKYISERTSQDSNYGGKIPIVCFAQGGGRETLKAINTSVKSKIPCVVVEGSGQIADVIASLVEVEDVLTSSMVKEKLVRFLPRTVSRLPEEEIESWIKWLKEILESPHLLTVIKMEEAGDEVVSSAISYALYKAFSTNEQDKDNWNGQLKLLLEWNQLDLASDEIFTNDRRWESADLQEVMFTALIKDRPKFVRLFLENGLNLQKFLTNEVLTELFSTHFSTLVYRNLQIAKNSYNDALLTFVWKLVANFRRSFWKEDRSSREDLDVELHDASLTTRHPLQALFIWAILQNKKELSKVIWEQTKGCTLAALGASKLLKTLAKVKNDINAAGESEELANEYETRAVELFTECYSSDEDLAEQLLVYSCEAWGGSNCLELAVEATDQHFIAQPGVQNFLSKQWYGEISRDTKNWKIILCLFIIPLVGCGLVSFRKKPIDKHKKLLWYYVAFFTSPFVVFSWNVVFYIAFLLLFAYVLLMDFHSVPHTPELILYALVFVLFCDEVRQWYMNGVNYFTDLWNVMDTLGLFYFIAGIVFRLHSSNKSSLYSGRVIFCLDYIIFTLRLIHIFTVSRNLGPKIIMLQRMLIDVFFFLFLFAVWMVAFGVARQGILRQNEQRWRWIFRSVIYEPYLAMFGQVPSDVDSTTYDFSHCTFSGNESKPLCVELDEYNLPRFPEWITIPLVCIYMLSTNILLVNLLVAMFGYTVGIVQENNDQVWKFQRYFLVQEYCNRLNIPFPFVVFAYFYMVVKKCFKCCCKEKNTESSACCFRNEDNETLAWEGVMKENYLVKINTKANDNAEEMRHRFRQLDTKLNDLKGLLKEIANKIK

Row | % inhibition of Wet-Dog Shake | Structure (SMILES)
1 | 54% | O=C(N[C@H](Cc1ncccc1F)[C@H](F)CO)c1cccc(F)c1-c1cc(-c2ccc(F)cc2)[nH]n1 [Example 43-41]

Same assay, conditions: female SD rats, oral dose 1 mg/kg, icilin 1 mg/kg i.p. 1 hour after dosing, shakes counted for 5 minutes

Row | % inhibition of Wet-Dog Shake | Structure (SMILES)
2 | 38% | CC(CO)[C@@H](Cc1ccccn1)NC(=O)c1cccc(F)c1-c1cc(-c2ccc(F)cc2)[nH]n1 (some centres unmarked) [Example 1-164]
3 | 92% | COC[C@@H](O)[C@@H](Cn1nccn1)NC(=O)c1cccc(F)c1-c1cc(-c2ccc(F)cc2)[nH]n1 [Example 60-1]
4 | 32% | CO[C@H](CO)[C@@H](Cc1cscn1)NC(=O)c1cccc(F)c1-c1cc(-c2ccc(F)cc2)[nH]n1 [Example 27-21]

Same assay, conditions: female SD rats, oral dose 3 mg/kg, icilin 1 mg/kg i.p. 1 hour after dosing, shakes counted for 5 minutes

Row | % inhibition of Wet-Dog Shake | Structure (SMILES)
5 | 40% | O=C(N[C@H](Cn1cccn1)[C@H](F)CO)c1cccc(Cl)c1-c1cc(-c2ccc(F)cc2)[nH]n1 [Example 43-45]
6 | 36% | O=C(N[C@H](Cc1ncccn1)[C@@H](O)CO)c1cccc(F)c1-c1cc(-c2ccc(F)cc2)[nH]n1 [Example 31-1, N-[(2R,3R)-3,4-Dihydroxy-1-(pyrimidin-2-yl)butan-2-yl]-3-fluoro-2-[5-(4-fluorophenyl)-1H-pyrazol-3-yl]benzamide]
7 | 78% | O=C1OC[C@H]([C@@H](Cc2ccccn2)NC(=O)c2cccc(F)c2-c2cc(-c3ccc(F)cc3)[nH]n2)O1 [Example 47-2]
8 | 42% | CC(CO)(CO)[C@@H](Cc1ccccn1)NC(=O)c1cccc(F)c1-c1cc(-c2ccc(Cl)cc2)[nH]n1 [Example 35-1, 2-[5-(4-Chlorophenyl)-1H-pyrazol-3-yl]-3-fluoro-N-[(2R)-4-hydroxy-3-(hydroxymethyl)-3-methyl-1-(pyridin-2-yl)butan-2-yl]benzamide]

Second part, the compound before the results:

Row | Structure (SMILES) | % inhibition of Wet-Dog Shake
9 | CO[C@@H](CO)[C@@H](Cn1cccn1)NC(=O)c1cccc(F)c1-c1cc(-c2ccc(F)cc2)[nH]n1 [Example 27-17] | 86%
10 | C[C@](CCO)(Cc1ccccn1)NC(=O)c1cccc(F)c1-c1cc(-c2ccc(F)cc2)[nH]n1 [Example 24-4] | 31%
11 | O=C(N[C@@H](CO)C(F)c1ccccn1)c1cccc(F)c1-c1cc(-c2ccc(F)cc2)[nH]n1 (some centres unmarked) [Example 1-231] | 88%
12 | COc1cccnc1C[C@H](CO)NC(=O)c1cccc(F)c1-c1cc(-c2ccc(F)cc2)[nH]n1 [Example 1-196] | 63%
13 | O=C(NCC(O)c1ccccn1)c1cccc(F)c1-c1cc(-c2ccc(F)cc2)[nH]n1 (centres unmarked) [Example 1-194] | 60%
14 | C[C@H](O)[C@@H](Cc1ccccc1)NC(=O)c1cccc(F)c1-c1cc(-c2ccc(F)cc2)[nH]n1 [Example 1-104] | 60%
15 | Cc1cccnc1C[C@H](CCO)NC(=O)c1cccc(F)c1-c1cc(-c2ccc(F)cc2)[nH]n1 [Example 1-117] | 46%
16 | C[C@H](O)C[C@@H](Cc1ccccn1)NC(=O)c1cccc(F)c1-c1cc(-c2ccc(F)cc2)[nH]n1 [Example 1-130] | 92%
17 | CC(c1ccccn1)[C@H](CO)NC(=O)c1cccc(F)c1-c1cc(-c2ccc(F)cc2)[nH]n1 (some centres unmarked) [Example 1-200] | 91%
18 | C[C@@](Cc1ccccc1)(NC(=O)c1ccccc1-c1cc(-c2ccc(F)cc2)[nH]n1)C(N)=O [Example 24-3] | 46%
19 | O=C(N[C@H](Cn1cccn1)[C@H](O)CO)c1cccc(F)c1-c1cc(-c2ccc(F)cc2)[nH]n1 [Example 1-226] | 53%

Same assay, conditions: female SD rats, oral dose 10 mg/kg, icilin 1 mg/kg i.p. 1 hour after dosing, shakes counted for 5 minutes

Row | % inhibition of Wet-Dog Shake | Structure (SMILES)
20 | 66% | O=C(NCCc1ccccn1)c1ccccc1-c1cc(-c2ccccc2)[nH]n1 [Example 1-3]
21 | 59% | NC(=O)C[C@@H](Cc1ccccc1)NC(=O)c1ccccc1-c1cc(-c2ccc(F)cc2)[nH]n1 [Example 1-77]
22 | 51% | NC[C@@H](Cc1ccccn1)NC(=O)c1ccccc1-c1cc(-c2ccc(F)c(F)c2)[nH]n1 [Example 16-11]
23 | 100% | O=C(N[C@@H](CO)Cc1ccccn1)c1c(F)cccc1-c1cc(-c2ccc(F)cc2)[nH]n1 [Example 1-94]

Reference: US10287251B2, “Pyrazole derivative or pharmaceutically acceptable salt thereof” (KISSEI PHARMACEUTICAL CO., LTD., priority 2015, dated 2019)
